Experimental data taken from patent US6794385B2, “Benzoxazine derivatives useful as integrin receptor antagonists” (Pharmacia & Upjohn, S.p.A., priority 2001, dated 2004).

What was measured:
[1] = biological target: T1, αIIbβ3 integrin (human fibrinogen receptor) (Homo sapiens, UniProt P05106+P08514); experiment: αIIbβ3-fibrinogen binding assay (solid phase); details: inhibition of biotinylated fibrinogen (10 nM) binding to coated αIIbβ3; read-out: αIIbβ3 (IC50 μmol)
T1 construct: was purified from human platelets; from tissue; host or cells: human platelets
T1 sequence (P08514 32-887 limits assumed): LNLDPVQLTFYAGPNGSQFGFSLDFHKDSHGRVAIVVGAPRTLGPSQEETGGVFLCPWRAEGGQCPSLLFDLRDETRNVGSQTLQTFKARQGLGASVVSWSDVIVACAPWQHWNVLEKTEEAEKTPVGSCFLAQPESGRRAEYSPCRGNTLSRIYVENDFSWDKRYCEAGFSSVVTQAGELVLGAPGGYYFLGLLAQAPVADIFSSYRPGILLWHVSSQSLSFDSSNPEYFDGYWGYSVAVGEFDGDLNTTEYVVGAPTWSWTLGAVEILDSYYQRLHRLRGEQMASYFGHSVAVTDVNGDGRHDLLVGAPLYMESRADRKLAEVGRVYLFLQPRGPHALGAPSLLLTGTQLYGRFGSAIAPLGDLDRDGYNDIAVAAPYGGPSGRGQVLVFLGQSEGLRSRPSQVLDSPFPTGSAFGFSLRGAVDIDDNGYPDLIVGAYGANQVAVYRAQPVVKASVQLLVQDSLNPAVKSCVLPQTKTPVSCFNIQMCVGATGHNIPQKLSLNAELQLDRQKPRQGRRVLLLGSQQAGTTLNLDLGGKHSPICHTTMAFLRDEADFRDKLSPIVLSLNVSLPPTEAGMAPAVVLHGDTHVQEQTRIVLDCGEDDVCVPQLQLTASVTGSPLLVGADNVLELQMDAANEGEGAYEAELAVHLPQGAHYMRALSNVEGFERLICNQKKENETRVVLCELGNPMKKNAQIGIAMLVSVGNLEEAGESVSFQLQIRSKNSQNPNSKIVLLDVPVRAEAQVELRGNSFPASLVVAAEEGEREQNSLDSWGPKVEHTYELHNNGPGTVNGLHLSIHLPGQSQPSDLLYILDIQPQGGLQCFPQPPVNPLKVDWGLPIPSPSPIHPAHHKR
T1 sequence (P08514 891-1039 partner limits assumed): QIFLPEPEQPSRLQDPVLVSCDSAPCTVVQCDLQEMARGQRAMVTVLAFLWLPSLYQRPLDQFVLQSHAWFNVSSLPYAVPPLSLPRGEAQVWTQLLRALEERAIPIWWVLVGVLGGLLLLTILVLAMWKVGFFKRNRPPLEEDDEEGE
T1 sequence (P05106 27-788): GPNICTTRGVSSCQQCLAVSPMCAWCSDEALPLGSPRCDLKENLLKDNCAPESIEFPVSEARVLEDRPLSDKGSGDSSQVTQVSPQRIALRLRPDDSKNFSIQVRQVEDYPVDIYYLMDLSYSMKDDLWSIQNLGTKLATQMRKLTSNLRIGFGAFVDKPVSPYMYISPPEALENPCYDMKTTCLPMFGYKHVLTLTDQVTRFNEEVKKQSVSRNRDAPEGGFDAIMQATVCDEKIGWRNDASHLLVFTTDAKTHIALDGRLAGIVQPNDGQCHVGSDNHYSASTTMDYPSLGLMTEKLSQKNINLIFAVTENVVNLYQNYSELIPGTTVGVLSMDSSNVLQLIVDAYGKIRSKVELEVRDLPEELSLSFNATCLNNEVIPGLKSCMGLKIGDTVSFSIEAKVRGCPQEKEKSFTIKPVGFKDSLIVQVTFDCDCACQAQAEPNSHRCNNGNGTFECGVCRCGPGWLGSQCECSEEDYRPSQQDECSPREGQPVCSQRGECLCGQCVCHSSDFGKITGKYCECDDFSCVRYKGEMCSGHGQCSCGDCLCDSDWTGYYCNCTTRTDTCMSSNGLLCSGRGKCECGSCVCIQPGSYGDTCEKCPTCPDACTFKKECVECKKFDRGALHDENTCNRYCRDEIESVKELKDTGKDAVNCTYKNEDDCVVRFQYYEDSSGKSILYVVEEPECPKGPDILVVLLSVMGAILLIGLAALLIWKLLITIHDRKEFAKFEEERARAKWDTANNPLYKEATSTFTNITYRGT
Description: A solid phase assay for the study of αIIbβ3-fibrinogen binding was set up on according to the method described for αvβ3. αIIbβ3 integrin was diluted into coating buffer (CB) containing 150 mM NaCl, 1 mM CaCl2, 1 mM MgCl2, 1 mM MnCl2, 20 mM TRIS, pH 7.4 at a concentration of 3 μg/ml. Into 96-well plates, 50 μl of the diluted integrin were added and allowed to bind to the plate walls overnight at 4° C. Next day, the assay plates were emptied and 100 μl of blocking buffer (CB buffer with 3% BSA) were added to each well for 45 min at 37° C. […] Then, the plates were washed as described and 50 μl of ready to use Turbo-TMB substrate for peroxydase were added to each well. After 30 minutes incubation at room temperature, the colour development was stopped with 50 μl sulphuric acid 0.38 M and the plates were read at a wavelength of 450 nm with a Packard plate reader. The values obtained were analysed by four parameters curve fit with the computer program GraphPad Prism, after normalization by a maximum binding control (Bmax) detected in wells where no competitor was added, and a minimum binding control (NSB) detected in wells where no integrin was coated. […]

human αvβ3 integrin = biological target: T2, human αvβ3 integrin (Homo sapiens, UniProt P05106+P06756); experiment: αvβ3-vitronectin binding assay (solid phase); details: for IC50: inhibition of biotinylated vitronectin (5 nM) binding to coated αvβ3, read-out: αvβ3 (IC50 μmol); for ratio between αIIbβ3 and αvβ3 inhibiting activity: selectivity, αIIbβ3 IC50 over αvβ3 IC50
T2 construct: was purified from human placenta; from tissue; host or cells: human placenta
T2 sequence (P06756 31-889 limits assumed): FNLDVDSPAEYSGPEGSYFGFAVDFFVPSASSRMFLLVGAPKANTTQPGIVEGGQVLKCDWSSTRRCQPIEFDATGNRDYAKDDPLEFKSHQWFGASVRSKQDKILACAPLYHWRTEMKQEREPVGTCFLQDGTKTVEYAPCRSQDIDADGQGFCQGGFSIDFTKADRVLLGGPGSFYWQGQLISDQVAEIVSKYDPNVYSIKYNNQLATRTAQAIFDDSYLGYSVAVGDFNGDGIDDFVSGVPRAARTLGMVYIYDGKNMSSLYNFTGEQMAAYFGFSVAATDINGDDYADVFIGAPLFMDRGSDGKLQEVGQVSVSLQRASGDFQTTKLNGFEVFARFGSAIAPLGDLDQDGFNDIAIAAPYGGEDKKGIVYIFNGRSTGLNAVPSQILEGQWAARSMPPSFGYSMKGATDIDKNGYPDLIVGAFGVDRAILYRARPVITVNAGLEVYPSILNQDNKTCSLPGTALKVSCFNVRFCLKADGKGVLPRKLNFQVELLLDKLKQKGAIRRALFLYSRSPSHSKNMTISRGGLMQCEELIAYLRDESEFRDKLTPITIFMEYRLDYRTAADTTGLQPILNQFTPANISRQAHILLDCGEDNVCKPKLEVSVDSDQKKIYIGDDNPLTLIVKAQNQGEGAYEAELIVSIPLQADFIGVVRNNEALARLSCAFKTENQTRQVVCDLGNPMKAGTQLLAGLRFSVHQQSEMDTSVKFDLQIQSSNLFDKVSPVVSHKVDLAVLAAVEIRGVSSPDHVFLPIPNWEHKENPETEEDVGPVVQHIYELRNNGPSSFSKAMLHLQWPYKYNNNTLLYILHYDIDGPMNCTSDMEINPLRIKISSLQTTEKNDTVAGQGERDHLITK
T2 sequence (P06756 891-1048 partner limits assumed): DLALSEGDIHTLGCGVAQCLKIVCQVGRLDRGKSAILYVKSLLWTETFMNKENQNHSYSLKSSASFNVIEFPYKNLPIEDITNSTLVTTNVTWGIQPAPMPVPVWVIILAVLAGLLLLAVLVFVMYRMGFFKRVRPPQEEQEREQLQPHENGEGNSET
T2 sequence (P05106 27-788): as the sequence (P05106 27-788) above
Description: A solid phase assay for the study of αvβ3-vitronectin binding was set up on the basis of already published methods (Wong et al., Molecular Pharmacology 50: 529-537, 1996; Brooks et al., Cell 85: 683-693, 1996). The human αvβ3 integrin was diluted into coating buffer (CB) containing 150 mM NaCl, 1 mM CaCl2, 1 mM MgCl2, 1 mM MnCl2, 20 mM TRIS, pH 7.4 at a concentration of 1.5 μg/ml. Into 96-well plates, 50 μl of the diluted integrin were added and allowed to bind to the plate walls overnight at 4° C. Next day, the assay plates were emptied and 100 μl of blocking buffer (CB buffer with 3% BSA) were added to each well for 45 min at 37° C. After the incubation, the plates were washed three times with 100 μl assay buffer (AB, CB buffer with 0.1% BSA). Serial 1:1 dilution (25 μl/well) of the test compounds were added to the plates, starting from 10 mM solutions in 100% DMSO diluted to 100 µM in AB. The binding reaction was started by addition (25 μl/well) of 10 nM biotinylated vitronectin (final concentration: 5 nM), and lasted 30 min at 37° C. The concentration range of the tested compounds spanned from 50 to 0.0005 μM. At the end of the co-incubation, the assay plates were washed as before and 70 μl of a 1:1000 AB dilution of peroxydase-conjugated streptavidin were added per well and were allowed to react for 45 min at 37° C. Then, the plates were washed as described and 50 μl of ready to use Turbo-TMB substrate for peroxydase were added to each well. After 30 minutes incubation at room temperature, the colour development was stopped with 50 μl sulphuric acid 0.38 M and the plates were read at a wavelength of 450 nm with a Packard plate reader. The values obtained were analyzed by four parameters curve fit in the computer program GraphPad Prism, after normalization by a maximum binding control (Bmax) detected in wells where no competitor was added, and a minimum binding control (NSB) detected in wells where no integrin was coated. Under standard assay conditions, A450 was never under 1.0 for Bmax, and around 0.15 for NSB.
Human vitronectin receptor ([…]v[…]3) was purified from human placenta (Pytela et al., Methods in Enzymology, 144: 475-489, 1987). Turbo-TMB was from PIERCE (34022). BSA (A4503), Vitronectin (V8379), RGD peptide (G4144) and all generic reagents were from SIGMA. Vitronectin was biotinylated according to the procedure indicated in the NHS biotinylation kit from PIERCE (21420). Horseradish peroxydase-streptavidin was from Amersham (RPN1231). 96-well plates were from Costar (#3690, EIA/RIA plate, ½ area flat bottom, high binding).

Row | SMILES | IC50 [1] | IC50 (human αvβ3 integrin) | ratio between αIIbβ3 and αvβ3 inhibiting activity (human αvβ3 integrin)
1 | O=C(O)CC1CN(c2ccccc2)c2cc(NC(=O)CCNc3ccccn3)ccc2O1 (stereo not drawn) [Compound 1a, (4-phenyl-6-{[3-(2-pyridinylamino)propanoyl]amino}-3,4-dihydro-2H-1,4-benzoxazin-2-yl)acetic acid] | 30 µM | 44 ± 25 nM | about 1,000
2 | O=C(O)CC1CN(c2ccccc2)c2cc(NC(=O)CCCNc3ccccn3)ccc2O1 (stereo not drawn) [Compound 1b, (4-phenyl-6-{[4-(2-pyridinylamino)butanoyl]amino}-3,4-dihydro-2H-1,4-benzoxazin-2-yl)acetic acid] | 27 µM | 24 ± 9 nM | about 1,000
